The values that follow come from patent US20210388031A1, “Designer Peptide Opsonins” (New Jersey Institute of Technology, priority 2020, published 2021).

For data set [1] the following is noted: rats IV.
A short description of the next data set: Anti-drug antibodies. The note with it: in vivo.
A short description of data set [2]: Solubility of nanofibers in aqueous phosphate buffer. The format is physicochemical. As for the experimental part: (i) SAPs are customizable solid phase peptide synthesized peptides. They are based on the canonical sequence K-(SL)6-K [SEQ.1] which aggregates via β-sheet interactions of the (SL) midblock to form fibers with polar lysine termini.^47,51 These 10-15 nm wide, 1-2 nm tall, 100s nm-μm long nanofibers are highly soluble >40 mg/mL (4w %) in aqueous phosphate buffer, FIG. 2 A-D.^57,58,60
Formed are fibers with polar glutamic acid termini. These ˜10 nm wide×1-2 nm tall, 100s nm-μm long nanofibers are highly soluble >40 mg/mL (4w %) in aqueous phosphate buffer, FIG. 3. […] Given straightforward SPPS synthesis with excellent (>90% crude purity), scalable manufacture (worldwide) of this peptide is assured.

For a further data set, the system named is A549 cell. Description: A549 cell cytocompatibility. To be noted: data not shown.
The conditions of data set [3]: 37° C., LC/MS, FIG. 6D.

Where two headings read alike, the source gives them in different places.

Regarding “Ac-ESLSLSLSLSLSLEGQYKTYIDKNNHYAEDERYK-NH2 (N-terminus and C-terminus assumed) [ESBP3]”, the clearance in data set [1] lay in the range of 4 to 6 h. The “anti-drug antibodies (ADA)” value in “Anti-drug antibodies” was “none seen to date”. In addition, the safety profile entry (daily >1 mM @ 1% blood volume (~200 μL) in rats IV) is recorded as “excellent safety profile”. The “IC50 improved compared to SBP3 alone” value with SARS-CoV-2 is “orders of magnitude improved”.

As to SALEEQLKTFLDKFMHELEDLLYQLAL [SBP2], the “Plaque Reduction (10 μM, n-4)” value in the data set on SARS-CoV-2 is 88%.

On to `CC(=O)N[C@@H](CCCCN)C(=O)N[C@@H](CO)C(=O)N[C@@H](CC(C)C)C(=O)N[C@@H](CO)C(=O)N[C@@H](CC(C)C)C(=O)N[C@@H](CO)C(=O)N[C@@H](CC(C)C)C(=O)N[C@@H](CO)C(=O)N[C@@H](CC(C)C)C(=O)N[C@@H](CO)C(=O)N[C@@H](CC(C)C)C(=O)N[C@@H](CO)C(=O)N[C@@H](CC(C)C)C(=O)N[C@@H](CCCCN)C(N)=O` [K-(SL)6-K], for which the solubility – broadly, the concentration that dissolves in the medium under given conditions – in data set [2] was > 40 mg/mL.

As to “Ac-ESLSLSLSLSLSLEGSALEEGQLKTFLDKFMHELEDLLYQLAL-NH2 (N-terminus and C-terminus assumed) [ESBP2]”, the IV clearance entry in data set [1] (FIG. 6C) was “approximately 4 hrs”. Also, the A549 cell cytocompatibility entry with A549 cell is “excellent”. Moreover, in data set [3], the “stability of drug formulation” value is recorded as “over 10 days”. In addition, the “adverse reaction, 10 day repeat dosing” value (rats, 1% blood volume of 1 mM peptides, FIG. 6B) is given as “no adverse reaction”. Moreover, in the data set on SARS-CoV-2, the IC50 (in general, the point on the concentration scale where inhibition reaches its midpoint) is < 10 nM and the “Plaque Reduction (10 μM, n-4)” value came out at 74%.

With QYKTYIDKNNHYAEDERYK [SBP3], the IC50 result with SARS-CoV-2 (binding domain alone, binds to the Spike protein) is “μM-nM”.
